{"source": "patent US7205296B2", "about": "“Substituted 2H-1,3-benzoxazin-4(3H)-ones” (Portola Pharmaceuticals, Inc., priority 2004, dated 2007)", "key": {"platelet ADP receptors": {"target": "T1, platelet ADP receptors (Homo sapiens, UniProt Q9H244)", "T1 construct": "endogenous in cells; host or cells: whole apyrase-washed human platelets (outdated from blood banks, or fresh)", "T1 sequence (Q9H244 whole entry)": "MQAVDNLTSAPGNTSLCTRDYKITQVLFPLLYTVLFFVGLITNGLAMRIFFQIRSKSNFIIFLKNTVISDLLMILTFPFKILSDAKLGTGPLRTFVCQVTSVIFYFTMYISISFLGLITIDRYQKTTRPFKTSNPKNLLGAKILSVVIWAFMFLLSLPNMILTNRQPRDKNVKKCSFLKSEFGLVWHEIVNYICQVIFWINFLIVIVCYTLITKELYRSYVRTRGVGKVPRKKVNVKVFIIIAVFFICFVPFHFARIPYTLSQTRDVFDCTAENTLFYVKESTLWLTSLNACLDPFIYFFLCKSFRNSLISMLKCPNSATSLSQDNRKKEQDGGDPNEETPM", "test": "ARB assay: inhibition of [3H]2-MeS-ADP binding to platelets", "settings": "IC50 class, [3H]2-MeS-ADP binding to whole human platelets", "method": "II. Inhibition of [^3H]2-MeS-ADP Binding to Platelets\nUtilizing the second assay the potency of inhibition of such compounds with respect to [^3H]2-MeS-ADP binding to whole platelets is determined. [^3H]2-MeS-ADP binding experiments are routinely performed with outdated human platelets collected by standard procedures at hospital blood banks. Apyrase-washed outdated platelets are prepared as follows (all steps at room temperature, if not indicated otherwise):\nOutdated platelet suspensions are diluted with 1 volume of CGS and platelets pelleted by centrifugation at 1900×g for 45 minutes. Platelet pellets are resuspended at 3-6×10^9 platelets/ml in CGS containing 1 U/ml apyrase (grade V, Sigma, St. Louis, Mo.) and incubated for 15 minutes at 37° C. After centrifugation at 730×g for 20 minutes, pellets are resuspended in Hepes-Tyrode's buffer containing 0.1% BSA (Sigma, St. Louis, Mo.) at a concentration of 6.66×10^8 platelets/ml. Binding experiments are performed after >45 minutes resting of the platelets.\nAlternatively, binding experiments are performed with fresh human platelets prepared as described in I. (Inhibition of ADP-Mediated Platelet Aggregation in vitro), except that platelets are resuspended in Hepes-Tyrode's buffer containing 0.1% BSA (Sigma, St. Louis, Mo.) at a concentration of 6.66×10^8 platelets/ml. Very similar results are obtained with fresh and outdated platelets.\nA platelet ADP receptor binding assay using the tritiated potent agonist ligand [^3H]2-MeS-ADP (Jantzen, H. M. et al. (1999) Thromb. Hemost. 81:111–117) has been adapted to the 96-well microtiter format. In an assay volume of 0.2 ml Hepes-Tyrode's buffer with 0.1% BSA and 0.6% DMSO, 1×10^8 apyrase-washed platelets are preincubated in 96-well flat bottom microtiter plates for 5 minutes with serial dilutions of test compounds before addition of 1 nM [^3H]2-MeS-ADP ([^3H]2-methylthioadenosine-5′-diphosphate, ammonium salt; specific activity 48–49 Ci/mmole, obtained by custom synthesis from Amersham Life Science, Inc., Arlington Heights, Ill., or NEN Life Science Products, Boston, Mass.). Total binding is determined in the absence of test compounds. Samples for nonspecific binding may contain 10^−5 M unlabelled 2-MeS-ADP (RBI, Natick, Mass.). After incubation for 15 minutes at room temperature, unbound radioligand is separated by rapid filtration and two washes with cold (4–8° C.) Binding Wash Buffer (10 mM Hepes pH 7.4, 138 mM NaCl) using a 96-well cell harvester (Minidisc 96, Skatron Instruments, Sterling, Va.) and 8×12 GF/C glassfiber filtermats (Printed Filtermat A, for 1450 Microbeta, Wallac Inc., Gaithersburg, Md.). The platelet-bound radioactivity on the filtermats is determined in a scintillation counter (Microbeta 1450, Wallac Inc., Gaithersburg, Md.). Specific binding is determined by […] binding, and specific binding in the presence of test compounds is expressed as % of specific binding in the absence of test compounds dilutions."}, "[1]": {"system": "ADP-induced human platelet aggregation", "test": "PRP assay: inhibition of ADP-mediated platelet aggregation in vitro", "type": "cell-based", "settings": "IC50 class", "method": "I. Inhibition of ADP-Mediated Platelet Aggregation in vitro\nThe effect of testing the compound according to the invention on ADP-induced human platelet aggregation is preferably assessed in 96-well microtiter assay (see generally the procedures in Jantzen, H. M. et al. (1999) Thromb. Hemost. 81:111–117). Human venous blood is collected from healthy, drug-free volunteers into ACD (85 mM sodium citrate, 111 mM glucose, 71.4 mM citric acid) containing PGI2 (1.25 ml ACD containing 1.6 μM PGI2/10 ml blood; PGI2 was from Sigma, St. Louis, Mo.). Platelet-rich plasma (PRP) is prepared by centrifugation at 160×g for 20 minutes at room temperature. Washed platelets are prepared by centrifuging PRP for 10 minutes at 730×g and resuspending the platelet pellet in CGS (13 mM sodium citrate, 30 mM glucose, 120 mM NaCl; 2 ml CGS/10 ml original blood volume) containing 1 U/ml apyrase (grade V, Sigma, St. Louis, Mo.). After incubation at 37° C. for 15 minutes, the platelets are collected by centrifugation at 730×g for 10 minutes and resuspended at a concentration of 3×10^8 platelets/ml in Hepes-Tyrode's buffer (10 mM Hepes, 138 mM NaCl, 5.5 mM glucose, 2.9 mM KCl, 12 mM NaHCO3, pH 7.4) containing 0.1% bovine serum albumin, 1 mM CaCl2 and 1 mM MgCl2. This platelet suspension is kept >45 minutes at 37° C. before use in aggregation assays.\nInhibition of ADP-dependent aggregation is preferably determined in 96-well flat-bottom microtiter plates using a microtiter plate shaker and plate reader similar to the procedure described by Frantantoni et al., Am. J. Clin. Pathol. 94, 613 (1990). All steps are performed at room temperature. The total reaction volume of 0.2 ml/well includes in Hepes-Tyrodes buffer/0.1% BSA: 4.5×10^7 apyrase-washed platelets, 0.5 mg/ml human fibrinogen (American Diagnostica, Inc., Greenwich, Conn.), serial dilutions of test compounds (buffer for control wells) in 0.6% DMSO. After about 5 minutes preincubation at room temperature, ADP is added to a final concentration of 2 μM which induces submaximal aggregation. Buffer is added instead of ADP to one set of control wells (ADP^− control). The OD of the samples is then determined at 490 nm using a microtiter plate reader (Softmax, Molecular Devices, Menlo Park, Calif.) resulting in the 0 minute reading. The plates are then agitated for 5 min on a microtiter plate shaker and the 5 minute reading is obtained in the plate reader. Aggregation is calculated from the decrease of OD at 490 nm at t=5 minutes compared to t=0 minutes and is expressed as % of the decrease in the ADP control samples after correcting for changes in the unaggregated control samples."}}}
{"smiles": "CNc1cc2c(cc1F)C(=O)N(c1ccc(NC(=O)NS(=O)(=O)c3ccc(Cl)s3)cc1OC)CO2", "note": "[Example 15, 1-(5-chlorothiophen-2-ylsulfonyl)-3-(4-(6-fluoro-7-(methylamino)-4-oxo-2H-benzo [e][1,3]oxazin-3(4H)-yl)-3-methoxyphenyl)urea]", "values": [{"measurement": "IC50", "setting": "platelet ADP receptors", "result": "< 0.05", "unit": "µM"}, {"measurement": "IC50", "setting": "[1]", "result": "< 10", "unit": "µM"}]}
